{"source": "patent US20240316196A1", "about": "“METHODS AND COMPOSITIONS FOR DIFFERENTIATION OF PLURIPOTENT STEM CELLS AND DERIVED NATURAL KILLER CELLS” (NUWACELL BIOTECHNOLOGIES CO., LTD., priority 2022, published 2024)", "key": {"iNK cells": {"test_system": "iNK cells", "assay": "Stage 3 expansion and maturation of immature iNK cells co-cultured with feeder cells", "format": "cell-based, human", "conditions": "IL-18 (10-50 ng/mL) with IL-2 (100 IU/mL) in Stage 3 vs IL-2 only, Day 14 of co-culture (FIG. 13B)", "method": "(§1) hiPSCs were prepared as described in CN108373998B. On Day −1, Embryoid body (EB) formation (Stage 1-1) was carried out by placing individualized hiPSCs in E8 medium containing 10 μM Blebbistatin in T25 flasks on a bellydancer and culture overnight. On Day 0, lateral mesoderm differentiation (Stage 1-2) was initiated by changing the medium to a Stage 1-2 differentiation medium comprising IF-4 basal medium and supplemented with BMP4 (25 ng/mL), VEGF (15 ng/mL), bFGF (0.5 ng/mL) and CHIR99021 (4 μM) for 2 days. On Day 2, lateral mesoderm differentiation (Stage 1-3) continued for 1 day in a Stage 1-3 differentiation medium comprising IF-4 basal medium and supplemented with BMP4 (25 ng/mL), VEGF (15 ng/mL) and bFGF (0.5 ng/mL) and CHIR99021 (1 μM). On Day 3, HE specification (Stage 1-4) was initiated by adding a Stage 1-4 differentiation medium comprising IF-4 basal medium and supplemented with VEGF (15 ng/mL), bFGF (5 ng/mL), XAV939 (5 μM) for 1 day. […] On Day 14 of co-culture, iNK cells were collected and stained with CD56-PE antibody (BD, #555516), and the percentage of CD56+ cells was analyzed by flow cytometry.\nhiPSCs were prepared as described in CN108373998B. […] D-1 and DO cells were analyzed by Microscopy. […] At the end of Stage 1-4, cells were analyzed by Microscopy and FACS. […] At the end of Stage 1-5, cells were analyzed by Microscopy and FACS. […]"}, "K562 cells": {"test_system": "K562 cells", "assay": "Cytotoxicity of Stage 3 iNK cells towards K562 cells (CFSE/7AAD assay)", "format": "cell-based", "conditions": "added to Stage 3 medium (IL-10 20 ng/mL, IL-18 50 ng/mL); 4 hr co-culture, E:T 3:1 (FIG. 13A)", "method": "as §1, with “ng/mL), VEGF (50 ng/mL) and” for “ng/mL), VEGF (15 ng/mL) and”, “On Day 11 of co-culture,” for “On Day 14 of co-culture,”, “(BD, #555516), the percentage” for “(BD, #555516), and the percentage”, “flow cytometry. The cytotoxicity of Stage 3 iNK cells towards K562 cells was detected by CFSE/7AAD assay after 4 hr co-culture at E:T of 3:1.” for “flow cytometry.”"}}}
{"substance": "IL-18: interleukin added to Stage 3 expansion and maturation medium", "values": [{"measurement": "expansion fold of iNK cells", "setting": "iNK cells", "value": "improve the expansion fold"}, {"measurement": "cytotoxicity of iNK cells towards K562 cells", "setting": "K562 cells", "value": "significantly improve"}]}
